Test results taken from ChEMBL document CHEMBL3880431, “Heme oxygenase inhibitors, screening methods for heme oxygenase inhibitors and methods of use of heme oxygenase inhibitors for antimicrobial therapy” (2013).

How the values were obtained:
[1] = Lipophilicity, log P of the compound; type: physicochemical; settings: octanol/water
[2] = Solubility of the compound in methanol; type: physicochemical

SMILES	logP ([1]; read-out: logP)	solubility [2]	logP [1]
CCc1cc(=O)oc2cc(OCC(N)=O)ccc12	1.46	Insoluble	–
O=C(O)C(O)c1cccc([N+](=O)[O-])c1 (centres undefined)	0.98	–	–
C/N=C(/NC)SC1CC(=O)N(c2cccc(C(=O)O)c2)C1=O (centres undefined)	1.25	–	–
O=C1OC(c2ccccc2)=N/C1=C\Nc1cccc([N+](=O)[O-])c1	3.05	Insoluble	–
NCCNS(=O)(=O)c1cccc(C(=O)O)c1	-0.2	–	–
O=C(O)CSc1nc(O)c2ccccc2n1	1.34	–	–
O=C1Nc2ccccc2Nc2ccccc21	2.27	–	–
Cc1ccc(O)c(/C=N/c2cccc(C(=O)O)c2)c1	3.28	–	–
O=C(O)c1ccc2c(c1)C(=O)N(c1ccc(Cl)cc1)C2=O	3.03	Soluble	–
NCCCNc1ccc([N+](=O)[O-])c(N)c1	0.38	–	–
O=C(O)c1ccccc1-c1nc(O)c2ccccc2n1	2.25	–	–
NC(=O)NNC1CC(=O)N(c2ccc(F)cc2)C1=O (centres undefined)	-0.43	–	–
CCN1CCN(CCN)CC1	-0.88	Soluble	–
O=C(O)c1cnc2c(ccc3ccccc32)c1O	1.87	–	–
Cc1nccn1S(=O)(=O)c1ccc(F)cc1	0.89	–	–
O=C(Cc1ccc(Cl)cc1)N/N=C/c1c[nH]c2ccccc12	4.74	Soluble	–
Cc1ccc(NC(=O)c2cnccn2)cc1Cl	1.48	Insoluble	–
NCC(=O)N(O)Cc1ccccc1	0.19	–	–
O=C(O)CNS(=O)(=O)c1ccc(F)cc1	0.66	–	–
Cc1cc(-c2ccc(F)cc2)nc2cc(C(=O)O)nn12	2.08	–	–
O=C(O)c1cc(-c2cccnc2)nc2ccccc12	2.51	Insoluble	–
O=C(N/N=C/c1ccc(O)cc1O)c1cccnc1	1.88	Insoluble	–
NC(=O)C1=NC(c2cccnc2)=NC1=O	-1.12	–	–
COc1ccc(C(=O)COC(=O)/C=C/c2ccccc2)cc1	3.7	Insoluble	–
O=C(O)/C=C\C(=O)Nc1ccc(Nc2ccccc2)cc1	2.6	Soluble	–
c1ccc2c(c1)n[n+]1c3ccccc3[n-]n21	2	–	–
NCC(O)(c1ccc(Cl)cc1)c1ccc(Cl)cc1	3.63	Soluble	–

SMILES	logP ([1]; read-out: logP)	solubility [2]	logP [1]
O=C(Cc1ccc(F)cc1)NNC(=O)Cn1cnnn1	-0.66	–	–
Nc1nnnn1/N=C/c1cc2c(cc1[N+](=O)[O-])OCO2	0.52	Insoluble	–
O=C(O)CSc1cccc2ccccc12	3.22	–	–
COc1ccc2[nH]c(SCC(N)=O)nc2c1	1.01	–	–
CCOc1ccc(Nc2nc(CC(=O)O)cs2)cc1	2.29	–	–
NS(=O)(=O)c1ccc2c(N=O)c(O)ccc2c1	1.3	–	–
CC(=O)Nc1ccc(/N=C/c2ccco2)cc1	1.54	Soluble	–
c1ccc2[nH]c(Cc3ccncc3)nc2c1	2.14	–	–
c1cncc(CNCc2cccnc2)c1	1.01	–	–
Cc1cccc(NC(=O)c2ccc(C(=O)Nc3cccc(C)n3)cc2)n1	2.68	Insoluble	–
Nc1nonc1-c1noc(-c2cccnc2O)n1	0.04	Insoluble	–
CNCc1ccccc1Sc1cccc(OC)c1	3.92	–	–
CN(C)CCN(C)Cc1cccc2ccccc12	3.05	Insoluble	–
N=C(N/N=C\c1cccnc1)N/N=C\c1cccnc1	7.05	Soluble	–
O=c1nc2oc3cc(O)ccc3cc-2c(=O)[nH]1	1.25	–	–
COC(=O)c1ccc(/C=N/n2cnnc2)cc1	1.55	–	–
C=CCn1c(S)nc2sc3c(c2c1=O)CCN(C)C3	2.29	–	–
O=C1c2ccccc2-c2nc3n[nH]nc3nc21	2	–	–
O=C(Cc1ccc([N+](=O)[O-])cc1)N/N=C/c1ccc(O)cc1	3.41	Insoluble	–
O=C(NNC(=O)c1ccncc1)c1ccncc1	–	Soluble	0.05
Cc1cn[nH]c1NC=C1C(=O)c2ccccc2C1=O	1.79	–	–
Nc1nonc1N/N=C/c1ccc(O)c(O)c1	3.18	–	–
Cn1c(=O)c(CC(=O)C(=O)O)nc2ccccc21	-0.29	–	–
O=C(CSc1nc2cccnc2[nH]1)NCCc1ccccc1	2.43	–	–
C=CCNc1nc(-c2cccs2)c(CC(=O)O)s1	2.29	–	–
Nc1nnc(CCN2C(=O)c3ccccc3C2=O)s1	1.39	–	–
CC(C)c1ccc(CN2CCN(CCO)CC2)cc1	1.93	Insoluble	–

SMILES	logP ([1]; read-out: logP)	solubility [2]	logP [1]
NC(=O)CNC(=O)Cc1ccccc1	0.06	–	–
CCc1ccc2[nH]c3nc(N/N=C/c4ccc(Cl)cc4)nnc3c2c1	7.15	Insoluble	–
Cc1nonc1NC(=O)CN1CCN(C)CC1	-1.04	–	–
NCc1ccc2c3c(cccc13)C(=O)N2	1.36	–	–
O=C(O)Cc1c(O)c2c(c(O)c1Cl)C(=O)c1ccccc1C2=O	2.69	–	–
NCCNc1nc(-c2ccccc2)nnc1-c1ccc(Cl)cc1	3.6	–	–
Nn1c(=O)[nH]c2c([nH]c3ccccc32)c1=O	0.26	–	–
NC(=O)c1ccc[n+](-c2ccccc2)c1	2.15	–	–
Nc1cc2nc3ccccc3nc2cc1N	1.66	–	–
C=CCNC(=O)C(=O)Nc1ccc(C(C)C)cc1	2	Insoluble	–
Nc1nnc(-c2cc3ccc(O)cc3oc2=O)s1	2.05	–	–
COc1ccc(NC(=O)CSc2nnc(C)n2-c2ccc(C)cc2)cc1	3.95	–	–
COc1ccc(/C=N/NC(=O)Cc2ccc([N+](=O)[O-])cc2)cc1	3.67	–	–
O=C(O)CCC(=O)Nc1ccc(Oc2ccccc2)cc1	2.36	–	–
[O-][NH+]1C=CC=C/C1=C1\C=CC=C[NH+]1[O-] (centres undefined)	1.95	–	–
O=C(CNC(=O)c1ccc2[nH]c3ccccc3c2c1)NCCO	1.4	–	–
NC(N)N/N=C/c1cc(=O)[nH]c(=O)[nH]1	-1.79	–	–
O=C(c1ccco1)C12CN3CN(CN(C3)C1)C2	-0.96	Soluble	–
C1CN2CCC1/C(=N\Nc1nnn[nH]1)C2	1.56	–	–
Oc1ccccc1/C=N/Nc1nnn[nH]1	3.23	Insoluble	–
COc1ccc(C(=O)n2nnc3ccccc32)cc1	2.77	–	–
NC(=O)c1nnn2c1nc(N)c1cc(Cl)ccc12	-0.14	–	–
Cc1ccc(CN2CCN(Cc3ccccc3)CC2)cc1	3.57	Insoluble	–
NC1=N[NH+]([O-])c2ccccc2[NH+]1[O-] (centres undefined)	1.22	–	–
O=CNc1nonc1NNc1ccccc1	0.89	Soluble	–
N#CCc1ccc(NC2=NS(=O)(=O)c3ccccc32)cc1	2.81	Insoluble	–
Nc1nonc1-n1cc(-c2ccccc2)nn1	1.15	–	–

SMILES	logP ([1]; read-out: logP)	solubility [2]	logP [1]
Cc1cccc2c(CCN)c[nH]c12	1.9	–	–
O=C(Oc1ccc(OC(=O)c2ccco2)cc1)c1ccco1	2.53	Insoluble	–
N#CCCNCc1cccnc1	0.03	–	–
O=C(O)Cc1c(C(=O)O)[nH]c2ccccc12	1.67	–	–
O=C(Oc1ccc(S(=O)(=O)c2ccc(OC(=O)c3ccco3)cc2)cc1)c1ccco1	3.38	–	–
COc1ccc(CNC(=N)NC(=N)N)cc1	1.46	–	–
NCc1ccccn1	-0.11	–	–
O=C(CNC(=O)c1cccnc1)N/N=C/c1ccccn1	0.32	Soluble	–
O=C(O)c1ccc(Cc2ccccc2)o1	2.22	–	–
Cc1nc(NCCCC(=O)O)c2ccccc2n1	1.38	–	–
Cc1cc(C(=O)O)nn1-c1ccccc1	1.47	–	–
N=C1S/C(=C\c2ccccc2)C(=O)N1c1nonc1N	2.4	–	–
N#Cc1ncc(-c2ccccc2)nc1C#N	0.8	–	–
O=C(CC1NCCNC1=O)NCc1ccccc1 (centres undefined)	-0.2	–	–
CC(N)c1ccc2ccccc2c1 (centres undefined)	2.88	–	–
COc1ccc(C(N)Cc2cnc[nH]2)cc1 (centres undefined)	0.81	–	–
Nc1nonc1-c1nc2ccccc2n1CC(=O)O	1.08	–	–
O=C1CN=C(Nc2nc3ccccc3o2)N1	0.62	–	–
Nc1ccccc1N/C=C1/C(=O)CNC1=O	-0.57	–	–
Cc1ccc(Nc2n[nH]c(N=CNO)n2)cc1C	2.07	–	–
Cc1ccccc1C(=O)O/N=C(\N)c1cccnc1	2.61	–	–
O=C(c1ccccc1O)c1[nH]ncc1[N+](=O)[O-]	1.6	–	–
O=C(Cn1ncc2cc([N+](=O)[O-])ccc21)NCc1ccco1	0.92	–	–
N#Cc1ccc[n+](Cc2cc(=O)[nH]c(=O)[nH]2)c1	0.38	–	–
